Experimental data reported in patent US8252807B2, “Methods of inhibiting the interaction between S100 and the receptor for advanced glycation end-products” (Board of Regents, The University of Texas System, priority 2007, dated 2012).

What was measured:
[1] = test system: NFκB promoter activity in BxPC-3 cells; experiment: Luciferase assay for NFκB activity, BxPC-3; type: cell-based; conditions: for basal NFκB activity in BxPC-3 cells, mean: 5 hours, 0 μM mean=1.4×10^6
SW480 colon cells = experiment: SW480 colon cell proliferation; type: cell-based; conditions: cromolyn 100 μM, up to three days
Method: SW480 colon cells were cultured for up to three days in the presence of cromolyn (100 μM), and cell proliferation was analyzed. *, P<0.05.

[2] = test system: NFκB activity in MPanc-96 cells; experiment: S100P stimulated NFκB luciferase reporter, MPanc-96; type: cell-based, human; conditions: S100P 100 nM, compound 1 μM, 5 hours
Method: MPanc-96 pancreatic cancer cell lines stably expressing an NFκB luciferase reporter were examined for the effects of S100P, cromolyn and C5. Cells were plated at 5.0×10^3 cells/well, treated for 5 hours with 100 nM of S100P, with or without cromolyn and C5 (1 μM), and activity of a luciferase gene driven by the NFkB promoter was analyzed. P=0.05 C5 versus cromolyn. Two-tailed two-sample (unpaired) Student's t-tests were used to determine P values.

[3] = test system: NFκB activity of BxPC-3 cells transplanted orthotopically; experiment: NFκB promoter activity in vivo, orthotopic BxPC-3 tumors; parameters: species or system mice
Method: (§1) FIGS. 3A, 3B, and 3C show the effect of cromolyn on S100P stimulated NFκB promoter activity in pancreatic cancer cells in vitro and in vivo. Panc-1 and BxPC-3 pancreatic cancer cell lines stably expressing an NFκB luciferase reporter were examined for the effects of S100P and cromolyn. […] Means and 95% confidence intervals are shown for three independent experiments performed in triplicate. *, P=0.022, †, P<0.001, and ‡, P<0.001 versus control; #, P=0.005 versus 100 nM S100P alone. […] Means and 95% confidence intervals are shown for three independent experiments performed in triplicate. *, P=0.003, †, P<0.001 versus control. […] After 1 week, tumor growth was assessed and NFκB activity was analyzed using an IVIS system (Xenogen Corp., Alameda, Calif.) after injecting mice with D-luciferin (150 mg per kg body weight) (0 time point). The mice were treated with cromolyn (5 mg per kg body weight by intraperitoneal injection), and NFκB luciferase activity was analyzed again at 24 and 48 hours. *, P=0.005 versus control. Means and 95% confidence intervals are shown for two independent experiments (n=4 mice per group). Two-tailed two-sample (unpaired for in vitro and paired for in vivo studies) Student's t-tests were used to determine P values.
To measure NFκB promoter activity in vivo, BxPC-3 cells (50,000/50 μL) stably expressing a Lenti-NFkB-luc reporter were transplanted orthotopically into the pancreas of 4-week-old male CB 17 scid mice (n=4 mice per experiment). After 1 week mice were injected with D-luciferin (150 mg per kg body weight, i.p.), and basal NFκB activity was determined using the IVIS system. Subsequently, mice were injected with cromolyn (5 mg per kg body weight, i.p.), and NFκB luciferase activity was re-analyzed after 24 and 48 hours. These experiments were performed three times.

[4] = test system: NFκB promoter activity in Panc-1 cells; experiment: Luciferase assay for NFκB activity, Panc-1; type: cell-based
Method: as §1
To study pancreatic cancer cell NFκB activity, a lentivirus NFκB luciferase reporter gene construct was developed. The NFκB luciferase reporter gene was excised and isolated from the pNF-κB-Luc Vector (Clonetec, Mountain View, Calif.) and cloned into the lentiviral vector FG9 (Gift from Dr. Xiao-Feng Qin, Dept. of Immunology, M.D. Anderson Cancer Center replacing the CMV/LTR and UBiC promoters, to form Lenti-NFκB-Luc. Lentiviral NFκB vector were co-transfected with packaging constructs pRSVREV, pMDLg/pRRE, and the VSV-G expression plasmid pHCMVG, and lentivirus was produced in 293T cells by the calcium transfection method, as previously described in Qin, et al., Inhibiting HIV-1 infection in human T cells by lentiviral-mediated delivery of small interfering RNA against CCR5; Proc. Natl. Acad. Sci. U.S.A. 2003 Jan. 7; 100(1):183-8. […] Functional validation of NFκB reporter activity was conducted in vitro using TNF-α (20 ng/mL, Sigma, St. Louis, Mo.) as a positive control.
BxPC-3 and Panc-1 cells stably expressing a Lenti-NFkB-luc reporter construct were treated with S100P, cromolyn, or the combination for 5 hours. D-luciferin (150 μg/mL) was added to the cells, and luciferase activity was measured using an IVIS bioluminescence system (Xenogen Co. Alameda, Calif.). Each experiment was conducted three times in triplicate.

SW480 cells = experiment: SW480 colon cancer cell invasion (matrigel transwell); type: cell-based; conditions: cromolyn 10 μM and 100 μM, 24 hours
Method: SW480 cells were plated on top of a layer of matrigel in a Boyden type chamber (transwell). Media containing 5% FBS was placed in the lower well and the cells were allowed to invade the matrigel layer for 24 hours in the presence of different concentrations of cromolyn.

BxPC-3 cells = experiment: BxPC-3 cell viability, 72 hours; type: cell-based
Method: BxPC-3 cells were plated at 1.0×10^3 cells/well and treated with 0 μM, 1 μM, 10 μM, and 100 μM of cromolyn or C5 alone or in combination with gemcitabine 1 μM and cell viability was analyzed after 72 hours. Two-tailed two-sample (unpaired) Student's t-tests were used to determine P values. […] BxPC-3 cells were plated at 1.0×10^3 cells/well and treated with either 100 μM of cromolyn or 1 μM C5 alone or in combination with gemcitabine (1 μM) and cell viability was analyzed after 72 hours.

MPan-96 cells = experiment: MPanc-96 cell invasiveness; type: cell-based, human
SKOV3 ovarian cells = experiment: SKOV3 ovarian cell proliferation; type: cell-based; conditions: 24, 48 and 72 hours
Method: SKOV3 ovarian cells were cultured for up to three days in the presence of different concentrations of cromolyn, and cell proliferation was analyzed at 24, 48, and 72 hours. *, P<0.05.

O=C(O)c1cc(=O)c2c(OCC(O)COc3cccc4oc(C(=O)O)cc(=O)c34)cccc2o1 [cromolyn, disodium 1,3-bis[(2′-carboxylatochromon-5′-yl)oxy]-2-hydroxypropane]
basal NFκB activity in BxPC-3 cells, difference versus 0 μM ([1]; cromolyn 10 μM): 4.7×10^5 photons/sec | basal NFκB activity in BxPC-3 cells, mean ([1]; cromolyn 10 μM): 9.4×10^5 photons/sec | basal NFκB activity in BxPC-3 cells, difference versus 0 μM ([1]; cromolyn 100 μM): 5.9×10^5 photons/sec | basal NFκB activity in BxPC-3 cells, mean ([1]; cromolyn 100 μM): 8.2×10^5 photons/sec | growth of SW480 cells (SW480 colon cells): reduced growth | NFκB activity in pancreatic cancer cells in vitro [2]: inhibit NFκB activity | NFκB luciferase activity in vivo, mean ([3]; 24 h after single dose 5 mg per kg i.p., 0 h mean=9.9×10^6): 1.3×10^6 photons/sec | reduction of basal NFκB activity in vivo ([3]; 24 hours after single dose 5 mg per kg i.p.): at least 80% | NFκB activity in vivo at 48 hours ([3]; 48 hours after single dose 5 mg per kg i.p.): returned to control levels | NFκB luciferase activity in vivo, difference 0 h versus 24 h ([3]; single dose 5 mg per kg i.p.): 8.6×10^6 photons/sec | NFκB promoter activity in Panc-1 cells, mean ([4]; S100P 100 nM + cromolyn 100 μM, 5 hours, S100P alone mean=14460): 7360 photons/sec | NFκB promoter activity in Panc-1 cells, difference S100P alone versus combination with cromolyn ([4]; S100P 100 nM, cromolyn 100 μM): 7100 photons/sec | basal NFκB activity in Panc-1 cells ([4]; cromolyn 100 μM, no S100P, 5 hours): no effect | invasiveness of SW480 cells (SW480 cells): reduced the invasiveness | BxPC-3 cell viability (BxPC-3 cells; 1-100 μM, alone or with gemcitabine 1 μM): inhibit BxPC-3 cell viability | concentration giving the same level of cell reduction in combination with gemcitabine (BxPC-3 cells; with gemcitabine 1 μM): 100 µM | MPanc-96 basal cell invasiveness (MPan-96 cells): inhibited basal cell invasiveness | growth of SKOV3 cells (SKOV3 ovarian cells): reduced the growth
